#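 In this assay, cells in 96-well plates receive the compound at five concentrations for 48 hours. Endpoints are linearly interpolated between the surrounding concentrations. Definition used: TGI = concentration required for complete inhibition of growth.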 Where a SMILES comes first, the peptide text is derived from it. The star is where a group is joined. Ethyl(2-NMe3+) = C[N+](C)(C)CC*; Boc = CC(C)(C)OC(=O)*
# Experiments:
# Assay in all cases: NCI anticancer screen, dose series, 48 h
# NCI/ADR-RES ovarian = system: NCI/ADR-RES ovarian
# SK-MEL-5 melanoma = system: SK-MEL-5 melanoma
# SNB-75 CNS = system: SNB-75 CNS
# 786-0 renal = system: 786-0 renal
# SK-OV-3 ovarian = system: SK-OV-3 ovarian
# MALME-3M melanoma = system: MALME-3M melanoma
# EKVX NSCLC = system: EKVX NSCLC
# HT29 colon = system: HT29 colon
# U251 CNS = system: U251 CNS
# HL-60(TB) leukemia = system: HL-60(TB) leukemia
# NCI-H23 lung = system: NCI-H23 lung
# SK-MEL-2 melanoma = system: SK-MEL-2 melanoma
# UO-31 renal = system: UO-31 renal
# A549 NSCLC = system: A549 NSCLC
# OVCAR-4 ovarian = system: OVCAR-4 ovarian
# CCRF-CEM leukemia = system: CCRF-CEM leukemia
# SF-295 CNS = system: SF-295 CNS
SMILES,TGI (NCI/ADR-RES ovarian),TGI (SK-MEL-5 melanoma),TGI (SNB-75 CNS),TGI (786-0 renal),TGI (SK-OV-3 ovarian),TGI (MALME-3M melanoma),TGI (EKVX NSCLC),TGI (HT29 colon),TGI (U251 CNS),TGI (HL-60(TB) leukemia),TGI (NCI-H23 lung),TGI (SK-MEL-2 melanoma),TGI (UO-31 renal),TGI (A549 NSCLC),TGI (OVCAR-4 ovarian),TGI (CCRF-CEM leukemia),TGI (SF-295 CNS)
Nc1[nH]c(=S)c2c(N)n[nH]c2c1C(=O)Nc1ccccc1,> 100 µM,> 100 µM,> 100 µM,> 100 µM,> 100 µM,> 100 µM,> 100 µM,> 100 µM,> 100 µM,> 100 µM,> 100 µM,> 100 µM,> 100 µM,> 100 µM,> 100 µM,,
CN1C(=O)C(c2c[nH]c3ccccc23)N(C)C(=O)C1c1c[nH]c2ccccc12 (stereo not drawn),> 100 µM,> 100 µM,88.2 µM,> 100 µM,> 100 µM,> 100 µM,> 100 µM,> 100 µM,> 100 µM,> 100 µM,> 100 µM,,> 100 µM,> 100 µM,> 100 µM,> 100 µM,> 100 µM
O=C(Nc1ccccc1)n1[nH]c(=O)n(-c2ccccc2)c1=O,> 100 µM,> 100 µM,> 100 µM,> 100 µM,> 100 µM,> 100 µM,,> 100 µM,> 100 µM,> 100 µM,> 100 µM,> 100 µM,> 100 µM,> 100 µM,> 100 µM,> 100 µM,> 100 µM
O=[N+]([O-])c1cc2c(c([N+](=O)[O-])c1)NCc1ccccc1O2,> 100 µM,> 100 µM,48.2 µM,> 100 µM,,> 100 µM,> 100 µM,> 100 µM,> 100 µM,> 100 µM,> 100 µM,> 100 µM,> 100 µM,> 100 µM,> 100 µM,> 100 µM,> 100 µM
CC(C)(C)c1ccc(-n2c3nc(=O)n(-c4ccccc4CO)c(=O)c-3cc3ccccc32)cc1,> 100 µM,> 100 µM,> 100 µM,> 100 µM,,> 100 µM,> 100 µM,86.8 µM,> 100 µM,56.1 µM,> 100 µM,,> 100 µM,> 100 µM,> 100 µM,66.3 µM,> 100 µM
Cc1ccc2c(c1)CC1(Cc3c(C)cccc3C1=O)C2=O (stereo not drawn),> 100 µM,> 100 µM,89.7 µM,> 100 µM,> 100 µM,> 100 µM,> 100 µM,> 100 µM,> 100 µM,> 100 µM,> 100 µM,,> 100 µM,> 100 µM,> 100 µM,> 100 µM,> 100 µM
COCn1cnc2c(=O)n(-c3ccc(OC)cc3)c(=S)n(-c3ccc(OC)cc3)c21,> 100 µM,> 100 µM,> 100 µM,> 100 µM,> 100 µM,,> 100 µM,> 100 µM,> 100 µM,> 100 µM,> 100 µM,> 100 µM,> 100 µM,> 100 µM,> 100 µM,> 100 µM,> 100 µM
C/C(=N\NC(=O)c1ccncc1)c1ccccc1F,> 10 µM,> 10 µM,> 10 µM,> 10 µM,> 10 µM,> 10 µM,,,> 10 µM,> 10 µM,> 10 µM,> 10 µM,> 10 µM,> 10 µM,,> 10 µM,> 10 µM
CC1=NN(C(=O)CC(=O)Nc2ccc(C)cc2)C(=O)C1N=Nc1ccc(S(=O)(=O)c2ccc(N=NC3C(=O)N(C(=O)CC(=O)Nc4ccc(C)cc4)N=C3C)cc2)cc1 (stereo not drawn),> 100 µM,> 100 µM,> 100 µM,> 100 µM,> 100 µM,> 100 µM,> 100 µM,,> 100 µM,> 100 µM,> 100 µM,> 100 µM,> 100 µM,> 100 µM,> 100 µM,> 100 µM,> 100 µM
CCN(CC)c1c(-c2c(N(CC)CC)c(OC(C)=O)c3sccn3c2=O)c(=O)n2ccsc2c1OC(C)=O,> 100 µM,> 100 µM,39.3 µM,90.1 µM,> 100 µM,> 100 µM,> 100 µM,> 100 µM,> 100 µM,> 100 µM,> 100 µM,> 100 µM,> 100 µM,,> 100 µM,> 100 µM,> 100 µM
O=C(Cc1ccc(Cl)cc1)Nc1ccc2oc(-c3ccccc3)nc2c1,> 100 µM,> 100 µM,72.1 µM,> 100 µM,> 100 µM,> 100 µM,> 100 µM,> 100 µM,> 100 µM,> 100 µM,> 100 µM,> 100 µM,,> 100 µM,> 100 µM,> 100 µM,> 100 µM
COc1ccc(OC2OC(COC(c3ccccc3)(c3ccc(OC)cc3)c3ccc(OC)cc3)C(O)C(O)C2O)cc1 (stereo not drawn),29.2 µM,16.1 µM,14 µM,5.87 µM,18.8 µM,21.2 µM,17.3 µM,5.96 µM,13.3 µM,7.59 µM,15.3 µM,15 µM,4.79 µM,11.8 µM,,5.39 µM,15 µM
CC(NC(=O)C(Cc1ccc(OCC[N+](C)(C)C)cc1)NC(=O)OC(C)(C)C)C(=O)NC(Cc1ccccc1)C(=O)NCC(N)=O (stereo not drawn) (Boc-Y(Ethyl(2-NMe3+))AFG-NH2; configuration not given here),> 100 µM,> 100 µM,30.3 µM,44.6 µM,22.7 µM,69.7 µM,,> 100 µM,12.8 µM,> 100 µM,31.8 µM,25.2 µM,> 100 µM,> 100 µM,> 100 µM,,17.4 µM
CC(C)=c1sc(=C(C)C)c2c1=NC(C)(C)N=2,> 100 µM,> 100 µM,,> 100 µM,> 100 µM,> 100 µM,> 100 µM,> 100 µM,> 100 µM,> 100 µM,> 100 µM,> 100 µM,,> 100 µM,> 100 µM,> 100 µM,> 100 µM
